# Measured values reported in paper PMC6510909 (Investigational New Drugs, 2018).
# Tested on: patients with previously untreated metastatic PDAC
# Assay: Phase 1 efficacy: best overall response (RECIST v1.1), OS, PFS, duration of response
# Assay type: in vivo, human
# Experimental: All patients provided written informed consent prior to enrollment.
# Staging CT or MRI scans were performed at baseline and approximately every 8 weeks following Cycle 1 Day 1. Imaging modalities were maintained over the course of the study. Treatment was to continue in the absence of disease progression, unacceptable toxicity, consent withdrawal, or refusal of treatment. After discontinuation of treatment, patients were followed for safety for 30 days.
# The efficacy analyses were conducted in all enrolled patients.
# [1] = 100 mg MMB QD n = 7, + nab-P + G
# [2] = 150 mg MMB BID n = 3, + nab-P + G
# [3] = 150 mg MMB QD n = 4, + nab-P + G
# [4] = 200 mg MMB BID n = 4, + nab-P + G
# [5] = 200 mg MMB QD n = 7, + nab-P + G
# [6] = all cohorts, MMB + nab-P + G, n = 25
# [7] = overall study population, MMB + nab-P + G
smiles,measurement,setting,value
"N#CCNC(=O)c1ccc(-c2ccnc(Nc3ccc(N4CCOCC4)cc3)n2)cc1 [MMB, momelotinib]",Best overall response: CR,[1],"0 n, (%)"
same,Best overall response: Not evaluable,[1],"2 (28.6) n, (%)"
same,Best overall response: ORR (CR + PR),[1],"2 (28.6) n, (%)"
same,Best overall response: PD,[1],"1 (14.3) n, (%)"
same,Best overall response: PR,[1],"2 (28.6) n, (%)"
same,Best overall response: SD,[1],"2 (28.6) n, (%)"
same,Best overall response: CR,[2],"0 n, (%)"
same,Best overall response: Not evaluable,[2],"1 (33.3) n, (%)"
same,Best overall response: ORR (CR + PR),[2],"1 (33.3) n, (%)"
same,Best overall response: PD,[2],"0 n, (%)"
same,Best overall response: PR,[2],"1 (33.3) n, (%)"
same,Best overall response: SD,[2],"1 (33.3) n, (%)"
same,Best overall response: CR,[3],"0 n, (%)"
same,Best overall response: Not evaluable,[3],"0 n, (%)"
same,Best overall response: ORR (CR + PR),[3],"1 (25.0) n, (%)"
same,Best overall response: PD,[3],"1 (25.0) n, (%)"
same,Best overall response: PR,[3],"1 (25.0) n, (%)"
same,Best overall response: SD,[3],"2 (50.0) n, (%)"
same,Best overall response: CR,[4],"0 n, (%)"
same,Best overall response: Not evaluable,[4],"0 n, (%)"
same,Best overall response: ORR (CR + PR),[4],"0 n, (%)"
same,Best overall response: PD,[4],"0 n, (%)"
same,Best overall response: PR,[4],"0 n, (%)"
same,Best overall response: SD,[4],"4 (100.0) n, (%)"
same,Best overall response: CR,[5],"0 n, (%)"
same,Best overall response: Not evaluable,[5],"0 n, (%)"
same,Best overall response: ORR (CR + PR),[5],"3 (42.9) n, (%)"
same,Best overall response: PD,[5],"0 n, (%)"
same,Best overall response: PR,[5],"3 (42.9) n, (%)"
same,Best overall response: SD,[5],"4 (57.1) n, (%)"
same,Complete responses (CRs) across the dose cohorts,[6],no CRs
same,Partial responses (PRs) across the dose cohorts,[6],7
same,"Stable disease as the best response, patients",[6],52%
same,"Objective response rate (ORR), overall study population","all cohorts, MMB + nab-P + G, n = 25, 95% CI 12.1%–49.4%",28%
same,Median (95% CI) OS,[7],"8.7 (6.7, 18.8) months"
same,Median (95% CI) PFS,[7],"5.7 (5.3, 7.2) months"
same,Median (95% CI) duration of response,the 7 patients with a PR,"4.0 (0.5, not reached) months"
